The text below walks through data of ChEMBL document CHEMBL1148243, “Indoline derivatives as 5-HT(2C) receptor agonists” (Bioorg Med Chem Lett, 2004).

Broadly, the EC50 is the concentration needed to bring the measured effect to its halfway point. Low readings indicate an effect from little substance, high ones a need for much substance. For orientation: Ki means the dissociation constant of the complex between target and ligand, obtained from inhibition or displacement. Low readings indicate higher affinity, high ones lower affinity.

Experiment [1] has as its target T1, 5-hydroxytryptamine receptor 2A (Homo sapiens, UniProt P28223). Kind of experiment: Functional activity against human 5-hydroxytryptamine 2A receptor expressed in CHO cells using fluorometric imaging plate reader. It is filed as cell-based.
The target of experiment [2] is T1, 5-hydroxytryptamine receptor 2A. Kind of experiment: Affinity for human 5-hydroxytryptamine 2A receptor expressed in mammalian cell line.
Experiment [3] concerns the target T2, 5-hydroxytryptamine receptor 2B (Homo sapiens, UniProt P41595). In words: Functional activity against human 5-hydroxytryptamine 2B receptor expressed in CHO cells using fluorometric imaging plate reader. It is filed as cell-based.
In experiment [4] the target is T1, 5-hydroxytryptamine receptor 2A. In words: Relative efficacy against human 5-hydroxytryptamine 2A receptor expressed in CHO cells using fluorometric imaging plate reader relative to 10 uM 5-HT. The experiment is classed as functional, cell-based.
The target in experiment [5] is T2, 5-hydroxytryptamine receptor 2B. In words: Affinity for human 5-hydroxytryptamine 2B receptor expressed in mammalian cell line.
For experiment [6] the target is unchanged. Kind of experiment: Relative efficacy against human 5-hydroxytryptamine 2B receptor expressed in CHO cells using fluorometric imaging plate reader relative to 10 uM 5-HT. It is filed as functional, cell-based.
Experiment [7] concerns the target T3, 5-hydroxytryptamine receptor 2C (Homo sapiens, UniProt P28335).
T3 sequence (P28335 whole entry): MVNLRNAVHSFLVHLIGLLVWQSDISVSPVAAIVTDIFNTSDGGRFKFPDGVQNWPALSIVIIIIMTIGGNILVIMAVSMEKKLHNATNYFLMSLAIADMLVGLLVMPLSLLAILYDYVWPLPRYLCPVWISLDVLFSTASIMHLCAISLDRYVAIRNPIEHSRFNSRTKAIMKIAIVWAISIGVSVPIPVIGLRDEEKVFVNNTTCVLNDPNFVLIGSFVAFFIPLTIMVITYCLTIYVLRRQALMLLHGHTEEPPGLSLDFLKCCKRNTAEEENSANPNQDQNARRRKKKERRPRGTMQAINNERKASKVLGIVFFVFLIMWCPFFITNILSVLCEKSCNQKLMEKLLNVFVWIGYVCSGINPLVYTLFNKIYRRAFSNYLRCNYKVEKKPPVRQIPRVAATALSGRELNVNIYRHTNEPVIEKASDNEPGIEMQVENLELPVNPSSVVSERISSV
Kind of experiment: Functional activity against human 5-hydroxytryptamine 2C receptor expressed in CHO cells using fluorometric imaging plate reader. The experiment is classed as cell-based.

Experiment [8] concerns the target T3, 5-hydroxytryptamine receptor 2C. In words: Affinity for human 5-hydroxytryptamine 2C receptor expressed in mammalian cell line.
Experiment [9] relates to Rattus norvegicus. Kind of experiment: Ability of compound to decrease food intake in rats after oral administration. The experiment is classed as functional. Particulars: read-out: MED.
Experiment [10] has as its system Rattus norvegicus. Kind of experiment: Ability of compound to decrease food intake in rats after subcutaneous administration. To be noted: sc, read-out: MED. It is filed as functional.

T1 sequence (P28223 whole entry): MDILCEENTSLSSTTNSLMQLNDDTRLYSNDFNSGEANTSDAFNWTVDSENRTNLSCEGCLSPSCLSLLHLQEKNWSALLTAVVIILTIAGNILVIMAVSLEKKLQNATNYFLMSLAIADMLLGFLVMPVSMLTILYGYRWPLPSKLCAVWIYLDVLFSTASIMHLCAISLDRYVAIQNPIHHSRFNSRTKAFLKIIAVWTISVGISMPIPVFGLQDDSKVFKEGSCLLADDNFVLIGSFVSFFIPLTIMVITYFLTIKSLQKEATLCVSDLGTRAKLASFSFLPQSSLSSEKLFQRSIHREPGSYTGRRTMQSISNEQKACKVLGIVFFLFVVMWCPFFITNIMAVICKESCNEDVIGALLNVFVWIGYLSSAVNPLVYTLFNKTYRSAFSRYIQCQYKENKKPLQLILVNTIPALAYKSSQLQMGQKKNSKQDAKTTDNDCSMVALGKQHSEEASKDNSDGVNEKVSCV
T2 sequence (P41595 whole entry): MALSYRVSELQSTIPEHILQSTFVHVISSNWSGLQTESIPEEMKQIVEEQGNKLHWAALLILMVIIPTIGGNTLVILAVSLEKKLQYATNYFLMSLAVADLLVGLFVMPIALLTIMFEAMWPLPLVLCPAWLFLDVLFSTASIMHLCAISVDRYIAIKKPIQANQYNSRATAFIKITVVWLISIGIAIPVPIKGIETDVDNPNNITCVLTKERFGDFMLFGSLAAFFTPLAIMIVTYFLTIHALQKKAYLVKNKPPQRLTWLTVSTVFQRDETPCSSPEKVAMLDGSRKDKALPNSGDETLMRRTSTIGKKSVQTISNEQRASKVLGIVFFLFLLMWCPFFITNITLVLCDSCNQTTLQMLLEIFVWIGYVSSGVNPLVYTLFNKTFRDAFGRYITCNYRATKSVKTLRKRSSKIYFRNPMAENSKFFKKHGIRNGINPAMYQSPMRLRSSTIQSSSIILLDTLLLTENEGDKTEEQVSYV

As to `C[C@H](N)CN1CCc2ccc3c(c21)CCO3`, the EC50 in experiment [1] was 62 nM; in [3], 3 nM; in experiment [7] it was 4.5 nM. Moreover, the Ki is 112 nM in experiment [2], 49 nM in experiment [5] and 8.7 nM in [8]. The Relative efficacy in experiment [4] was 81%; in [6] it was 74%. For the same compound, the minimal effective dose in experiment [9] is 1 mg/kg; in [10], 0.1 mg/kg.
On to `CCSc1ccc2c(c1)N(C[C@H](C)N)CC2`, for which the results for the EC50 in [1], in experiment [3] and in experiment [7] were 378 nM, 72 nM and 40 nM, respectively. Besides, the Ki in experiment [2] came to 184 nM; in experiment [5] it was 189 nM; in experiment [8] it was 16 nM. The Relative efficacy is 71% in [4] and 67% in experiment [6].
Take `C[C@H](N)Cn1ccc2cc(F)c(Cl)cc21`: the Ki is 38 nM in experiment [2], 5.1 nM in experiment [5] and 2.3 nM in experiment [8]. Also, the EC50 in [3] is 4.3 nM; in [7], 18 nM. The Relative efficacy is 72% in [4] and 71% in experiment [6].
With `C[C@H](N)CN1CCc2cc(F)c(C(F)(F)F)cc21`, the EC50 was determined as 1060 nM in [1], 49 nM in [3] and 130 nM in experiment [7]. The Ki in experiment [2] was determined as 432 nM; in experiment [5], 88 nM; in experiment [8] it was 26 nM. The Relative efficacy in experiment [4] is 45%; in experiment [6] it was 86%.
`C[C@H](N)CN1CCc2ccc(Br)cc21`: the EC50 in [1] came to 719 nM; in [3], 11 nM; in experiment [7], 44 nM. For the same compound, the figures for the Ki in [2], in experiment [5] and in experiment [8] were 351 nM, 46 nM and 24 nM, respectively. Moreover, the Relative efficacy in [4] was 54%; in [6], 78%. Moreover, the minimal effective dose in [9] was determined as 30 mg/kg; in experiment [10], 3 mg/kg.
As for `C[C@H](N)CN1CCc2ccc(Cl)cc21`, the EC50 in experiment [1] was found to be 602 nM; in experiment [3], 6.5 nM; in experiment [7] it was 44 nM. Besides, the results for the Ki in experiment [2], in [5] and in experiment [8] were 364 nM, 54 nM and 13 nM, respectively. In addition, the Relative efficacy in experiment [4] is 55%; in experiment [6] it was 76%.
In the case of `C[C@H](N)CN1CCc2cc(F)c(I)cc21`, the EC50 in experiment [1] worked out at 432 nM; in [3], 22 nM; in experiment [7], 64 nM. The values for the Ki in experiment [2], in experiment [5] and in [8] were 139 nM, 38 nM and 17 nM, respectively. Besides, the values for the Relative efficacy in experiment [4] and in experiment [6] were 54% and 71%, respectively.
Take `CSc1cc2c(cc1F)CCN2C[C@H](C)N`: the results for the EC50 in experiment [1], in experiment [3] and in [7] were 76 nM, 4.1 nM and 6.7 nM, respectively. Moreover, the Ki stood at 53 nM in experiment [2], 21 nM in [5] and 3.2 nM in [8]. In addition, the Relative efficacy in experiment [4] came to 87%; in experiment [6], 72%. Moreover, the minimal effective dose in experiment [9] worked out at 3 mg/kg; in experiment [10] it was 0.3 mg/kg.
With `C[C@H](N)CN1CCc2cc(F)c(Cl)cc21`, the EC50 in experiment [1] came to 367 nM; in [3], 7.3 nM; in experiment [7] it was 31 nM. The Ki in experiment [2] is 167 nM; in experiment [5], 31 nM; in experiment [8] it was 14 nM. The Relative efficacy in [4] came to 66%; in [6], 77%.
Regarding `CCSc1cc2c(cc1F)CCN2C[C@H](C)N`, the EC50 in [1] is 181 nM; in [3], 31 nM; in [7], 21 nM. Besides, the Ki in experiment [2] was determined as 58 nM; in experiment [5], 62 nM; in experiment [8] it was 6.4 nM. In addition, the Relative efficacy in experiment [4] was found to be 80%; in [6] it was 66%.
For the compound `Clc1cccc(N2CCNCC2)c1` [CHLOROPHENYLPIPERAZINE], the minimal effective dose was 10 mg/kg in experiment [9] and 1 mg/kg in experiment [10].
As for `C[C@H](N)CN1CCc2ccc3c(c21)CCCO3`, the results for the EC50 in [1], in experiment [3] and in experiment [7] were 125 nM, 36 nM and 28 nM, respectively. The Ki in experiment [2] came out at 395 nM; in experiment [5], 355 nM; in experiment [8], 38 nM. Further, the Relative efficacy turned out to be 71% in experiment [4] and 67% in [6].
On to `CSc1ccc2c(c1)N(C[C@H](C)N)CC2`, for which the EC50 in [1] was 164 nM; in experiment [3], 10 nM; in experiment [7] it was 26 nM. Also, the Ki in experiment [2] was determined as 171 nM; in [5], 89 nM; in experiment [8], 5.7 nM. The Relative efficacy in experiment [4] stood at 72%; in experiment [6], 78%.
